The values below come from patent US9481654B2, “Compositions and methods for inhibition of the JAK pathway” (Rigel Pharmaceuticals, Inc., priority 2006, dated 2016).

Format in all cases: cell-based
The subject of assay [1] is IL-4 stimulated CD23 upregulation in human Ramos B cells (JAK-1/JAK-3, Stat-6). Put plainly: Assay for Ramos B-Cell Line Stimulated with IL-4 (CD23 upregulation, FACS). To be noted: Table III Example 3. The procedure, abridged:
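Flow cytometry of CD23 staining after 20-24 h IL-4 stimulation (50 units/mL final) of human Ramos B cells in RPMI with 5% serum. Cells, 5×10^4 per point, received compound or DMSO vehicle for 1 h at 37° C prior to stimulation.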

In assay [2] the test system is primary human T-cells (IL-2 induced proliferation, JAK-1/JAK-3, Stat-5). The assay can be described thus: Primary Human T-Cell Proliferation Assay Stimulated with IL-2 (CellTiter-Glo). To be noted: Table III Example 4. Put shortly:
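Read-out is intracellular ATP luminescence (CellTiter-Glo) after 72 h at 37 °C of IL-2-driven growth. Cells, pre-stimulated via TCR and CD28 then washed free of IL-2, were resuspended in Yssel's medium, given 80 U/mL IL-2 in the cell suspension plus duplicate compound; unstimulated wells lacked IL-2.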
On the technique in general: In ATP-based viability assays light output follows the ATP content of the culture.

In assay [3] the test system is IFNγ induced ICAM-1 (CD54) up-regulation in U937 human monocytic cells (JAK/Stat pathway). The assay can be described thus: U937 IFNγ ICAM1 FACS Assay. To be noted: Table III Example 6; 10 ng/mL IFNγ, 18-24 hours. From the text:
A549 lung epithelial cells and U937 cells up-regulate ICAM-1 (CD54) surface expression in response to a variety of different stimuli. Therefore, using ICAM-1 expression as readout, test compound effects on different signaling pathways can be assessed in the same cell type. Stimulation with IL-1β through the IL-1β receptor activates the TRAF6/NFκB pathway resulting in up-regulation of ICAM-1. IFNγ induces ICAM-1 up-regulation through activation of the JAK1/JAK2 pathway. The up-regulation of ICAM-1 can be quantified by flow cytometry across a compound dose curve and EC50 values are calculated. Exemplary assays of this type are described in greater detail in Examples 5 and 6. U937 human monocytic cells up-regulate ICAM-1 (CD54) surface expression in response to a variety of different stimuli. Therefore, using ICAM-1 expression as readout, compound effects on different signaling pathways can be assessed in the same cell type. IFNγ up-regulates ICAM-1 through activation of the JAK/Stat pathway. In this example, the up-regulation of ICAM-1 by IFNγ was assessed. […] The cells were then plated at a concentration of 100,000 cells per 160 μL in 96 well flat bottom plates. The test compounds were then diluted as follows: 10 mM test compound was diluted 1:5 in DMSO (3 μL 10 mM test compound in 12 μL DMSO), followed by a 1:3 serial dilution of test compound in DMSO (6 μL test compound serially diluted into 12 μL DMSO to give 3-fold dilutions). […] For control wells, 4 μL of DMSO was diluted into 76 μL 10% RPMI. […] The cells and compounds were then pre-incubated for 30 minutes at 37° C. with 5% CO2. […] The cells were kept under conditions for stimulation for 18-24 hours at 37° C. with 5% CO2. […] Cells were spun down at 1000 rpm for 5 minutes at 4° C., following which the supernatant was removed. […] The cells were then incubated on ice in the dark for 30 minutes. […] After suspension, the cells were centrifuged at 1000 rpm for 5 min at 4° C. […] Detection was performed using a BD LSR I System Flow Cytometer, purchased from BD Biosciences of San Jose, Calif. The live cells were gated for live scatter and the geometric mean of ICAM-APC was measured (Becton-Dickinson CellQuest software version 3.3, Franklin Lakes, N.J.). Both % live cells and ICAM-1 expression was analyzed. The assays for the test compounds were carried out in parallel with a control compound of known activity.

pIC50: −log10 of the molar value.

On to `NS(=O)(=O)c1cccc(Nc2ncc(F)c(Nc3ccc(CNS(=O)(=O)c4cccs4)cc3)n2)c1` [Compound I-36, N2-(3-aminosulfonyl)phenyl-5-fluoro-N4-[4-(thiophen-2-yl)sulfonylaminomethyl]phenyl-2,4-pyrimidinediamine], for which the pIC50 was 7.39 in assay [1], 7.19 in assay [2] and 6.49 in assay [3].

Take `CCS(=O)(=O)NCCc1ccc(Nc2nc(Nc3ccc(S(N)(=O)=O)cc3)ncc2C)cc1` [Compound I-38, N2-(4-aminosulfonyl)phenyl-N4-[4-(2-ethylsulfonylamino)ethyl]phenyl-5-methyl-2,4-pyrimidinediamine]: the pIC50 in assay [1] is 6.91; in assay [2], 6.72; in assay [3], 6.07.

`Cc1ccc(Nc2ncc(F)c(Nc3ccc(CNS(=O)(=O)c4sc(N)nc4C)cc3)n2)cc1S(N)(=O)=O` [Compound I-43, N4-[4-(2-amino-4-methylthiazol-5-yl)sulfonylaminomethyl]phenyl-N2-(3-aminosulfonyl-4-methyl)phenyl-5-fluoro-2,4-pyrimidinediamine]: the pIC50 is 6.27 in assay [1], 5.75 in assay [2] and 4.42 in assay [3].

As to `Cc1cnc(Nc2ccc(S(N)(=O)=O)cc2)nc1Nc1ccc(CNS(=O)(=O)C2CC2)cc1` [Compound I-45, N2-(4-aminosulfonyl)phenyl-N4-(4-cyclopropylsulfonylaminomethyl)phenyl-5-methyl-2,4-pyrimidinediamine], the pIC50 in assay [1] is 7.22; in assay [2], 7.53; in assay [3], 6.55.

In the case of `Cc1cnc(Nc2cccc(S(N)(=O)=O)c2)nc1Nc1ccc(CNS(=O)(=O)C2CC2)cc1` [Compound I-46, N2-(3-aminosulfonyl)phenyl-N4-(4-cyclopropylsulfonylaminomethyl)phenyl-5-methyl-2,4-pyrimidinediamine], the figures for the negative-log IC50 (pIC50) in assay [1], in assay [2] and in assay [3] were 7.57, 7.60 and 6.73, respectively.

Turning to `Cc1cnc(Nc2ccc(S(N)(=O)=O)cc2)nc1Nc1ccc(CCNS(=O)(=O)C2CC2)cc1` [Compound I-53, N2-(4-aminosulfonyl)phenyl-N4-[4-(2-cyclopropylsulfonylamino)ethyl]phenyl-5-methyl-2,4-pyrimidinediamine], the results for the negative logarithm of the IC50 (pIC50) in assay [1], in assay [2] and in assay [3] were 6.88, 6.76 and 6.22, respectively.

As for `Cc1cnc(Nc2ccc(S(N)(=O)=O)cc2)nc1Nc1cccc(CNS(=O)(=O)C2CC2)c1` [Compound I-56, N2-(4-aminosulfonyl)phenyl-N4-(3-cyclopropylsulfonylaminomethyl)phenyl-5-methyl-2,4-pyrimidinediamine], the results for the pIC50 in assay [1], in assay [2] and in assay [3] were 6.79, 6.51 and 6.14, respectively.

On to `CC(C)S(=O)(=O)NCc1ccc(Nc2nc(Nc3cccc(S(N)(=O)=O)c3)ncc2F)cc1` [Compound I-66, N2-(3-aminosulfonyl)phenyl-5-fluoro-N4-(4-isopropylsulfonylaminomethyl)phenyl-2,4-pyrimidinediamine], for which the negative-log IC50 (pIC50) in assay [1] is 7.16; in assay [2] it was 7.19; in assay [3] it was 6.33.

Turning to `CCS(=O)(=O)NCc1ccc(Nc2nc(Nc3cccc(S(N)(=O)=O)c3)ncc2F)cc1Cl` [Compound I-75, N2-(3-aminosulfonyl)phenyl-N4-(3-chloro-4-ethylsulfonylaminomethyl)phenyl-5-fluoro-2,4-pyrimidinediamine], the results for the negative-log IC50 (pIC50) in assay [1], in assay [2] and in assay [3] were 6.74, 6.61 and 5.92, respectively.

`CCCN(Cc1ccc(Nc2nc(Nc3ccc(S(N)(=O)=O)cc3)ncc2C)cc1)S(=O)(=O)C1CC1` [Compound I-79, N2-(4-aminosulfonyl)phenyl-N4-[4-(N-cyclopropylsulfonyl-N-propylamino)methyl]phenyl-5-methyl-2,4-pyrimidinediamine]: the pIC50 is 7.01 in assay [1], 7.03 in assay [2] and 6.46 in assay [3].

What is called pIC50 is −log10 of the IC50, conventionally taken in molar units.
